Measurements reported in paper PMC11478076, “Synthetic Routes to 2-aryl-1H-pyrrolo[2,3-b]pyridin-4-amines: Cross-Coupling and Challenges in SEM-Deprotection” (Molecules, 2024).
pIC50: −log10 of the molar value. Several values for one entry are separate records, joined by “and”; a condition that tells them apart may be missing. Equal values may be shown once. Read-outs that look alike come from different tables or passages of the source.

Tests used:
CSF1R [1] = molecular target: T1, CSF1R (Homo sapiens, UniProt P07333); set-up: method as in PMID 38141285; conditions: cited from earlier work
T1 sequence (P07333 20-972): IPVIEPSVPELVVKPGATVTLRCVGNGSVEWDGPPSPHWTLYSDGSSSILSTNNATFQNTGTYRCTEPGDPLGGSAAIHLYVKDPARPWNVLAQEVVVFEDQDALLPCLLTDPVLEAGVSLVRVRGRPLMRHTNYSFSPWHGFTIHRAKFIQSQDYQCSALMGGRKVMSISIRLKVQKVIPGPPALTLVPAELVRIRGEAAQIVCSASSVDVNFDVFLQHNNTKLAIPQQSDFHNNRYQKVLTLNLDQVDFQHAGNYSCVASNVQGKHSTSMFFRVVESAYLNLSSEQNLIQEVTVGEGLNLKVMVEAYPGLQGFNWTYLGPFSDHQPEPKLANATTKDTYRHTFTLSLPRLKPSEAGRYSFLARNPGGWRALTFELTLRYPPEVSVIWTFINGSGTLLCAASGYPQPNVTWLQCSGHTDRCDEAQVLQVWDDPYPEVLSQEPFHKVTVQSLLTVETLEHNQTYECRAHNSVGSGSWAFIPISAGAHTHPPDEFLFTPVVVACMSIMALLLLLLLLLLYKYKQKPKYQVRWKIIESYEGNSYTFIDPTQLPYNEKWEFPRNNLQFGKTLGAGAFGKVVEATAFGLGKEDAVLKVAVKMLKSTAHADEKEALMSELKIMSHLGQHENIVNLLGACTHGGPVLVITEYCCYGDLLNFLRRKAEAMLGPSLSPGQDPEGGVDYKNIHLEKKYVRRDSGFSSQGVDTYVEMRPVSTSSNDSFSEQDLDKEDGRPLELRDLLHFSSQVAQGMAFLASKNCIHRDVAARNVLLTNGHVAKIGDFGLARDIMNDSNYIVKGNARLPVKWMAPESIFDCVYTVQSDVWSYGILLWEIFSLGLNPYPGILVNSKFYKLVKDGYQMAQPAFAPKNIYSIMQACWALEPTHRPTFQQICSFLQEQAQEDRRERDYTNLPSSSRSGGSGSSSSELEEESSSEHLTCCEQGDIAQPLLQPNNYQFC

CSF1R [2] = molecular target: T1, CSF1R; set-up: method as in Aarhus et al. [19]; conditions: LANCE Ultra assay; ATP level 25 μM; previously reported data ref Aarhus et al. [19]; cited from earlier work
CSF1R [3] = molecular target: T1, CSF1R; assay: CSF1R enzymatic inhibitory assay, Z'-LYTE (Invitrogen/ThermoFisher); type: biochemical; conditions: ATP level equal to KM 10 μM, two titration curves (20 data points)
Protocol: Figure 2 CSF1R inhibition (IC50 curves) for the 7-azaindole 3c (red squares), pyrrolopyrimidine 1 (blue circles) and thienopyrimidine 2 (green triangles). The solid lines are regression curves generated from 20 data points each. The assay was performed at ThermoFisher (Invitrogen, San Diego, CA, USA) using the Z-lyte technology; ATP level was equal to KM.
(§1) CSF1R enzymatic inhibitory assay
(§2) The compounds were supplied in a 10 mM DMSO solution, and enzymatic CSF1R inhibition potency was determined by Invitrogen (ThermoFisher) using their Z’-LYTE® assay technology.[11] The assay is based on fluorescence resonance energy transfer (FRET). In the primary reaction, the kinase transfers the gamma-phosphate of ATP to a single tyrosine residue in a synthetic FRET-peptide. In the secondary reaction, a site-specific protease recognizes and cleaves non-phosphorylated FRET-peptides. Thus, phosphorylation of FRET-peptides suppresses cleavage by the development reagent. Cleavage disrupts FRET between the donor (i.e. coumarin) and acceptor (i.e., fluorescein) fluorophores on the FRET-peptide, whereas uncleaved, phosphorylated FRET-peptides maintain FRET. […]
(§3) The TR-FRET-based LANCE Ultra assay (Perkin Elmer) was used to determine IC50 values for various CSF1R inhibitors. Kinase activity and inhibition in this assay was measured as […]

CSF1R [4] = molecular target: T1, CSF1R; assay: CSF1R enzymatic inhibitory assay, LANCE Ultra TR-FRET (Perkin Elmer); type: biochemical
Protocol: as §1, §2, §3
recommended by the manufacturer. […] Subsequently, phosphorylation or inhibition was detected by addition of specific europium (Eu)-labelled anti-phospho-antibodies (2 nM), which upon binding to the phospho-peptide give rise to a FRET signal. The FRET signal was recorded in a time-resolved manner in a Perkin Elmer EnVision reader. […] All assay data was analysed with the Quattro Workflow software package from Quattro Research.

In the case of CN(Cc1ccccc1)c1ncnc2sc(-c3ccc(CO)cc3)cc12 [compound 2], the “CSF1R inhibitory activity in enzymatic studies (in words)” value (CSF1R [1]) is given as “far less active” and the pIC50 (CSF1R [2]) is given as 6.35.

In the case of COc1ccc(-c2[nH]c3nccc4c3c2Cc2ccccc2CN4C)cc1 [16b, 1-(4-Methoxyphenyl)-6-methyl-2,6,7,12-tetrahydro-2,3,6-triazabenzo[6,7]cycloocta[1,2,3-cd]indene], the melting point was 287 to 289 °C (dec.).

For CN(Cc1ccccc1)c1ccnc2[nH]c(-c3ccc(CO)cc3)cc12 [3c, (4-(4-(Benzyl(methyl)amino)-1H-pyrrolo[2,3-b]pyridin-2-yl)phenyl)methanol], the pIC50 (CSF1R [3]) was 8.52 and 8.51, the “fold lower CSF1R activity compared to the corresponding pyrrolopyrimidine (reference inhibitor 1)” value (CSF1R [4]; CSF1R assay with higher ATP concentration (25 μM)) was 20 fold and the pIC50 (CSF1R [4]; LANCE Ultra assay, ATP level 25 μM) was 6.98. The melting point was 200 to 201 °C.

For CN(Cc1ccccc1)c1ccnc2[nH]c(-c3ccccc3)cc12 [3a, N-Benzyl-N-methyl-2-phenyl-1H-pyrrolo-[2,3-b]pyridin-4-amine], the melting point was 191 to 193 °C.
